# Measurements as given in US20250346580A1, “NOVEL PYRIMIDINYL SULFONAMIDE DERIVATIVES” (Hoffmann-La Roche Inc., priority 2023, published 2025).
# Target: human GPR17 short isoform (Homo sapiens, UniProt Q13304)
# Assay: GPR17 cAMP assay (hGPR17 cAMP)
# Assay type: cell-based
# Settings: CHO-K1 cells stably expressing human GPR17 short isoform; antagonist mode with EC80 of MDL29,951, forskolin 15 μM, TR-FRET cAMP
# Procedure: GPR17 cAMP Assay Protocol:
# CHO-K1 cells stably expressing vector containing untagged human GPR17 short isoform (Roche) were cultured at 37° C./5% CO2 in DMEM (Dulbecco's Modified Eagle Medium):F-12 (1:1) supplemented with 10% foetal bovine serum and 400 μg/ml Geneticin.
# Changes in intracellular cyclic adenosine monophosphate (cAMP) levels were quantified using the Nano-TRF Detection Assay kit (Roche Diagnostics, Cat. No. 05214386001). This assay allows for direct cAMP quantification in a homogeneous solution. cAMP is detected based on time-resolved fluorescence energy transfer (TR-FRET) and competitive binding of ruthenylated cAMP and endogenous cAMP to an anti-cAMP monoclonal antibody labeled with AlexaFluor-700. The Ruthenium complex serves as the FRET donor and transfers energy to AlexaFluor-700. The FRET signal is inversely proportional to the cAMP concentration.
# CHO-GPR17S cells were detached with Accutase and resuspended in assay buffer consisting of Hank's Balanced Salt Solution (HBSS), 10 mM HEPES (4-(2-hydroxyethyl) piperazine-1-ethanesulfonic acid solution) and 0.1% bovine serum albumin (pH 7.4). The cells were seeded in black 384-well plates (Corning) at a density of 10'000 cells/20 μl assay buffer until the addition of compounds.
# Test antagonist compounds were serially diluted in dimethyl sulfoxide (DMSO) and spotted in 384-well plates. The compounds were then diluted in HBSS buffer supplemented with an EC80 concentration of MDL29,951 (3-(2-Carboxy-4,6-dichloroindol-3-yl)propionic acid) (GPR17 agonist) plus 3-Isobutyl-1-methylxanthine (IBMX) (0.5 mM final concentration) and added to the cells at room temperature. Forskolin (15 μM final concentration) was added 5 minutes after the test compounds and the cells were incubated at room temperature for 30 minutes. The assay was stopped by adding cAMP detection mix (containing detergents for cell lysis) for 90 minutes at room temperature.
# Cellular cAMP was measured using a Paradigm reader (Molecular Devices). The raw data was used to calculate the FRET signal based on the assay's P-factor as per cAMP kit instructions. The data was normalized to the maximal activity of a reference antagonist and dose response curves were fitted to the percent activity of the test compounds using a sigmoidal dose response model (Genedata Screener).
# human GPR17 short isoform, sequence (Q13304 29-367): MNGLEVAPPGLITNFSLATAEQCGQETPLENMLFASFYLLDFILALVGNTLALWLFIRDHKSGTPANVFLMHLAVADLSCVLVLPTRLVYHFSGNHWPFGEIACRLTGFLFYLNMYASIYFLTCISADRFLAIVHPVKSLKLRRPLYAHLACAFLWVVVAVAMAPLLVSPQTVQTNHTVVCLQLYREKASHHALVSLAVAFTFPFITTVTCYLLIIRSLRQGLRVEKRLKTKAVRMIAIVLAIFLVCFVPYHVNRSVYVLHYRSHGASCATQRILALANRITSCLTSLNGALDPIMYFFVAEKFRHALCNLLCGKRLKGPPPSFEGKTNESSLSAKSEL
row,SMILES,IC50 [nM]
1,"COc1nc(NS(=O)(=O)c2c[nH]c(-c3ccccc3)c2)nc(OC)c1OC(F)F [Example 2, N-[5-(difluoromethoxy)-4,6-dimethoxy-pyrimidin-2-yl]-5-phenyl-1H-pyrrole-3-sulfonamide]",478
2,"COc1nc(NS(=O)(=O)c2c[nH]c(-c3ccccc3)c2)nc(OC)c1OCCF [Example 3, N-[5-(2-fluoroethoxy)-4,6-dimethoxy-pyrimidin-2-yl]-5-phenyl-1H-pyrrole-3-sulfonamide]",73
3,"COc1nc(NS(=O)(=O)c2c[nH]c(-c3nccs3)c2)nc(OC)c1OCC(F)F [Example 4, N-[5-(2,2-difluoroethoxy)-4,6-dimethoxy-pyrimidin-2-yl]-5-thiazol-2-yl-1H-pyrrole-3-sulfonamide]",500
4,"COc1nc(NS(=O)(=O)c2c[nH]c(-c3ncccc3F)c2)nc(OC)c1OC(F)F [Example 5, N-[5-(difluoromethoxy)-4,6-dimethoxy-pyrimidin-2-yl]-5-(3-fluoro-2-pyridyl)-1H-pyrrole-3-sulfonamide]",325
5,"COc1nc(NS(=O)(=O)c2c[nH]c(-c3ncccc3F)c2)nc(OC)c1CC(F)F [Example 6, N-[5-(2,2-difluoroethyl)-4,6-dimethoxy-pyrimidin-2-yl]-5-(3-fluoro-2-pyridyl)-1H-pyrrole-3-sulfonamide]",107
6,"COc1nc(NS(=O)(=O)c2c[nH]c(-c3ncccc3F)c2)nc(OC)c1OCC(F)F [Example 8, N-[5-(2,2-difluoroethoxy)-4,6-dimethoxy-pyrimidin-2-yl]-5-(3-fluoro-2-pyridyl)-1H-pyrrole-3-sulfonamide]",99
7,"COc1nc(NS(=O)(=O)c2c[nH]c(-c3nccs3)c2)ncc1OCC(F)F [Example 9, N-[5-(2,2-difluoroethoxy)-4-methoxy-pyrimidin-2-yl]-5-thiazol-2-yl-1H-pyrrole-3-sulfonamide]",697
8,"COc1nc(NS(=O)(=O)c2c[nH]c(-c3nccs3)c2)nc(OC)c1CCC#N [Example 10, N-[5-(2-cyanoethyl)-4,6-dimethoxy-pyrimidin-2-yl]-5-thiazol-2-yl-1H-pyrrole-3-sulfonamide]",69
9,"COc1nc(NS(=O)(=O)c2c[nH]c(-c3ccsn3)c2)nc(OC)c1OCC(F)F [Example 11, N-[5-(2,2-difluoroethoxy)-4,6-dimethoxy-pyrimidin-2-yl]-5-isothiazol-3-yl-1H-pyrrole-3-sulfonamide]",142
10,"COc1nc(NS(=O)(=O)c2c[nH]c(-c3ccccc3)c2)nc(OC)c1CC(F)F [Example 12, N-[5-(2,2-difluoroethyl)-4,6-dimethoxy-pyrimidin-2-yl]-5-phenyl-1H-pyrrole-3-sulfonamide]",169
11,"COc1nc(NS(=O)(=O)c2c[nH]c(-c3cscn3)c2)nc(OC)c1CC(F)F [Example 15, N-[5-(2,2-difluoroethyl)-4,6-dimethoxy-pyrimidin-2-yl]-5-thiazol-4-yl-1H-pyrrole-3-sulfonamide]",661
12,"COc1nc(NS(=O)(=O)c2c[nH]c(-c3cscn3)c2)nc(OC)c1OC(F)F [Example 16, N-[5-(difluoromethoxy)-4,6-dimethoxy-pyrimidin-2-yl]-5-thiazol-4-yl-1H-pyrrole-3-sulfonamide]",2270
13,"COc1nc(NS(=O)(=O)c2c[nH]c(-c3ccccn3)c2)nc(OC)c1CC(F)F [Example 17, N-[5-(2,2-difluoroethyl)-4,6-dimethoxy-pyrimidin-2-yl]-5-(2-pyridyl)-1H-pyrrole-3-sulfonamide]",133
14,"COc1nc(NS(=O)(=O)c2c[nH]c(-c3ccccn3)c2)nc(OC)c1OC(F)F [Example 18, N-[5-(difluoromethoxy)-4,6-dimethoxy-pyrimidin-2-yl]-5-(2-pyridyl)-1H-pyrrole-3-sulfonamide]",344
15,"COc1nc(NS(=O)(=O)c2c[nH]c(-c3ccccn3)c2)nc(OC)c1OCC(F)F [Example 19, N-[5-(2,2-difluoroethoxy)-4,6-dimethoxy-pyrimidin-2-yl]-5-(2-pyridyl)-1H-pyrrole-3-sulfonamide]",182
16,"COc1nc(NS(=O)(=O)c2c[nH]c(-c3nc(C)cs3)c2)nc(OC)c1CC(F)F [Example 20, N-[5-(2,2-difluoroethyl)-4,6-dimethoxy-pyrimidin-2-yl]-5-(4-methylthiazol-2-yl)-1H-pyrrole-3-sulfonamide]",198

row,SMILES,IC50 [nM]
1,"COc1nc(NS(=O)(=O)c2c[nH]cc2Cc2ccccc2)nc(OC)c1CC(F)F [Example 21, 4-benzyl-N-[5-(2,2-difluoroethyl)-4,6-dimethoxy-pyrimidin-2-yl]-1H-pyrrole-3-sulfonamide]",635
2,"COc1nc(NS(=O)(=O)c2c[nH]cc2Cc2ccccc2)nc(OC)c1OC(F)F [Example 22, 4-benzyl-N-[5-(difluoromethoxy)-4,6-dimethoxy-pyrimidin-2-yl]-1H-pyrrole-3-sulfonamide]",2260
3,"COc1nc(NS(=O)(=O)c2c[nH]c(-c3ncccc3F)c2)nc(OC)c1CCC#N [Example 23, N-[5-(2-cyanoethyl)-4,6-dimethoxy-pyrimidin-2-yl]-5-(3-fluoro-2-pyridyl)-1H-pyrrole-3-sulfonamide]",45
4,"COc1nc(NS(=O)(=O)c2c[nH]c(-c3ncccc3F)c2)ncc1CC(F)F [Example 24, N-[5-(2,2-difluoroethyl)-4-methoxy-pyrimidin-2-yl]-5-(3-fluoro-2-pyridyl)-1H-pyrrole-3-sulfonamide]",331
5,"COc1nc(NS(=O)(=O)c2c[nH]c(-c3cscn3)c2)nc(OC)c1OCCF [Example 25, N-[5-(2-fluoroethoxy)-4,6-dimethoxy-pyrimidin-2-yl]-5-thiazol-4-yl-1H-pyrrole-3-sulfonamide]",916
6,"COc1nc(NS(=O)(=O)c2c[nH]c(-c3cscn3)c2)nc(OC)c1OCC(F)F [Example 26, N-[5-(2,2-difluoroethoxy)-4,6-dimethoxy-pyrimidin-2-yl]-5-thiazol-4-yl-1H-pyrrole-3-sulfonamide]",724
7,"COc1nc(NS(=O)(=O)c2c[nH]c(-c3ccccn3)c2)nc(OC)c1OCCF [Example 27, N-[5-(2-fluoroethoxy)-4,6-dimethoxy-pyrimidin-2-yl]-5-(2-pyridyl)-1H-pyrrole-3-sulfonamide]",127
8,"COc1nc(NS(=O)(=O)c2c[nH]cc2Cc2ccccc2)nc(OC)c1OCCF [Example 28, 4-benzyl-N-[5-(2-fluoroethoxy)-4,6-dimethoxy-pyrimidin-2-yl]-1H-pyrrole-3-sulfonamide]",1080
9,"[2H]C([2H])(c1cccc(F)c1)c1c[nH]cc1S(=O)(=O)Nc1nc(OC)c(OCC(F)F)c(OC)n1 [Example 29, 4-[dideuterio-(3-fluorophenyl)methyl]-N-[5-(2,2-difluoroethoxy)-4,6-dimethoxy-pyrimidin-2-yl]-1H-pyrrole-3-sulfonamide]",964
10,"COc1nc(NS(=O)(=O)c2c[nH]cc2Cc2ccccc2)nc(OC)c1OCC(F)F [Example 30, 4-benzyl-N-[5-(2,2-difluoroethoxy)-4,6-dimethoxy-pyrimidin-2-yl]-1H-pyrrole-3-sulfonamide]",1860
11,"COc1nc(NS(=O)(=O)c2c[nH]c(-c3nc(C)cs3)c2)nc(OC)c1OCCF [Example 31, N-[5-(2-fluoroethoxy)-4,6-dimethoxy-pyrimidin-2-yl]-5-(4-methylthiazol-2-yl)-1H-pyrrole-3-sulfonamide]",222
12,"COc1nc(NS(=O)(=O)c2c[nH]c(-c3nc(C)cs3)c2)nc(OC)c1OC(F)F [Example 32, N-[5-(difluoromethoxy)-4,6-dimethoxy-pyrimidin-2-yl]-5-(4-methylthiazol-2-yl)-1H-pyrrole-3-sulfonamide]",523
13,"COc1nc(NS(=O)(=O)c2c[nH]c(-c3nc(C)cs3)c2)nc(OC)c1OCC(F)F [Example 33, N-[5-(2,2-difluoroethoxy)-4,6-dimethoxy-pyrimidin-2-yl]-5-(4-methylthiazol-2-yl)-1H-pyrrole-3-sulfonamide]",283
14,"COc1nc(NS(=O)(=O)c2c[nH]c(-c3nccs3)c2)ncc1CC(F)F [Example 34, N-[5-(2,2-difluoroethyl)-4-methoxy-pyrimidin-2-yl]-5-thiazol-2-yl-1H-pyrrole-3-sulfonamide]",457
15,"COc1nc(NS(=O)(=O)c2c[nH]c(-c3nccs3)c2)nc(OC)c1C1CC1C#N (centres unmarked) [Example 35, N-[5-(2-cyanocyclopropyl)-4,6-dimethoxy-pyrimidin-2-yl]-5-thiazol-2-yl-1H-pyrrole-3-sulfonamide]",170
16,"COc1nc(NS(=O)(=O)c2c[nH]c(-c3cncs3)c2)nc(OC)c1OCC(F)F [Example 36, N-[5-(2,2-difluoroethoxy)-4,6-dimethoxy-pyrimidin-2-yl]-5-thiazol-5-yl-1H-pyrrole-3-sulfonamide]",111
